Results taken from patent US9611232B2, “Oxazolidinone and imidazolidinone compounds” (Hoffmann-La Roche Inc., priority 2012, dated 2017).

Key:
[1] = system: human endometrial cancer cells; conditions: nude mice; cited from earlier work
[2] = system: human melanoma; conditions: severe combined immunodeficiency mice; cited from earlier work
[3] = molecular target: KCa3.1 (Homo sapiens (Human), UniProt O15554); assay: Thallium influx assay (FLIPR, FluxOR); assay type: cell-based; conditions: CHOK1 cells over-expressing KCa3.1; thallium (3.3 mM)/ionomycin (1 μM) activation
Method: The thallium influx assay was performed with CHOK1 cells over-expressing KCa3.1 obtained from Evotec and maintained in MEM Alpha medium supplemented with 10% fetal bovine serum, 100 U/ml penicillin/[…] streptomycin and 250 μg/ml G418.
CHOK1 wild type cells were passaged using F12/Ham's medium supplemented with 10% fetal bovine serum, 2 mM glutamine, 100 U/ml penicillin/[…] streptomycin. All cells were cultured in T175 flasks.
Before the day of the assay, cells were harvested from culture flasks using standard trypsin digestion. Cells were counted and densities adjusted and dispensed into 384-well poly-D-lysine coated plates at 7500 […], assay plates were incubated overnight in CO2 incubator at 37° C.
The following day, growth media was removed followed by the addition of 25 ul/well of FluxOR™ (Invitrogen) loading dye in a gluconate based assay buffer (135 mM NaGluconate,
2.5 mM Kgluconate, 2 mM CaNO3, 1 mM MgNO3, 10 mM HEPES (acid), 5 mM glucose pH adjusted to 7.4). Assay plates were incubated for 1 hour at 37° C. The loading dye was then replaced with gluconate assay buffer containing probenecid.
Compounds diluted in gluconate buffer were transferred into the assay plates (25 μl/well) followed by incubation for 20 minutes at room temperature. The assay plates were then transferred to a Fluorometric Imaging Plate Reader (FLIPR), a baseline was read for twenty second capture, followed by the addition of 25 μl/well of channel activation solution in gluconate buffer—for KCa3.1 cells thallium (3.3 mM)/ionomycin(1 μM) was used and for the wild type, ionomycin only, then fluorescence was monitored for another 90 seconds.

[4] = molecular target: h KCa3.1 (Homo sapiens (Human), UniProt O15554); assay: Electrophysiology patch clamp (PatchXpress); assay type: cell-based; conditions: CHO cells over-expressing h KCa3.1, read-out: IC50 Ephys
Method: Electrophysiology Patch Clamp
Compounds were tested using a PatchXpress® (Model 7000A, Molecular Devices, Union City Calif.) on CHO cells over-expressing h KCa3.1 at ChanTest Corporation, 14656 Neo Parkway, Cleveland, Ohio.

[5] = system: allergen challenge-induced airway resistance and hyper-reactivity; conditions: sheep model of asthma; cited from earlier work
[6] = system: MDCK 3-D cyst; conditions: MDCK 3-D cyst model of ADPKD; cited from earlier work
[7] = system: T-cell and macrophage infiltration; conditions: in combination with a Kv1.3 blocker; early stages of chronic kidney transplant rejection; cited from earlier work
[8] = system: renal fibrosis; conditions: unilateral ureteral obstruction model; cited from earlier work
[9] = system: trinitrobenzene sulfonic acid-induced colitis; conditions: mice; cited from earlier work
[10] = system: neointimal smooth muscle hyperplasia; conditions: rats after carotid balloon angioplasty; cited from earlier work

IC50 [3] [nM]	IC50 [4] [nM]	Compound	other results
700	42	NC(=O)CN1C(=O)OC(c2cccc(F)c2)(c2cccc(F)c2)[C@@H]1c1ccccc1F [Example 15, 2-[(S)-5,5-Bis-(3-fluoro-phenyl)-4-(2-fluoro-phenyl)-2-oxo-oxazolidin-3-yl]-acetamide]	
880	15	NC(=O)CN1C(=O)OC(c2ccccc2)(c2ccccc2)[C@@H]1c1ccccc1F [Example 17, 2-[(S)-4-(2-Fluoro-phenyl)-2-oxo-5,5-diphenyl-oxazolidin-3-yl]-acetamide]	
740	63	NC(=O)CN1C(=O)OC(c2ccc(F)cc2)(c2ccc(F)cc2)[C@@H]1c1ccccc1Cl [Example 19, 2-[(S)-4-(2-Chloro-phenyl)-5,5-bis-(4-fluoro-phenyl)-2-oxo-oxazolidin-3-yl]-acetamide]	

Further lines, the compound ahead of its results:

Compound	IC50 [3] [nM]	IC50 [4] [nM]	other results
Clc1ccccc1C(c1ccccc1)(c1ccccc1)n1ccnc1 [Clotrimazole]			growth of tumours [1]: slowed the growth of tumours; number of metastases [2]: reduce the number of metastases
NC(=O)CN1C(=O)OC(c2ccccc2F)(c2ccccc2F)[C@@H]1c1ccccc1F [Example 13, 2-[(S)-4,5,5-Tris-(2-fluoro-phenyl)-2-oxo-oxazolidin-3-yl]-acetamide]	340	15	
NC(=O)C(c1ccccc1)(c1ccc(F)cc1)c1ccc(F)cc1 [Senicapoc]			allergen challenge-induced airway resistance and hyper-reactivity [5]: reduce allergen challenge-induced airway resistance and hyper-reactivity
Clc1ccccc1C(c1ccccc1)(c1ccccc1)n1cccn1 [TRAM-34]			cyst formation [6]: inhibits cyst formation; T-cell and macrophage infiltration [7]: reduced T-cell and macrophage infiltration; renal fibrosis [8]: significantly reduced renal fibrosis; severity of the symptoms [9]: significantly reduced the severity of the symptoms; neointimal smooth muscle hyperplasia [10]: significantly reduced neointimal smooth muscle hyperplasia
